Columns and labels:
NCI-H1975 cells = assay: Gene expression analysis (qPCR of ALPP and HOPX); format: cell-based; details: NCI-H1975, 1 μM CBP/p300 inhibitor in presence of 20 nM osimertinib, 24 h
Description: Equal amount of cDNA was then subjected to qPCR analysis using the Kapa SYBR fast kit (KK4611) in a 384 well format in a Roche Light Cycler 480. Gene expression of genes was evaluated by subtraction of housekeeping gene CT-values (b-Actin) from CT of the genes of interest, and by calculating the ΔΔCT by subtracting the DMSO control value from sample of interest to finally calculate fold change differences of treated versus control treated sample.
Data is from 2 independent experiments with qPCRs in duplicate (mean±SEM) (FIG. 1C-D).

HCC827 cells = assay: Label-free determination of cell proliferation (CELIGO); format: cell-based; details: 21 days (FIG. 9)

CO[C@H]1CC[C@H](n2c([C@@H]3CCCC(=O)N3c3ccc(F)c(F)c3)nc3cc(-c4c(C)noc4C)ccc32)CC1 [CCS1477]
EGFR inhibitor induced gene expression (ALPP, HOPX) (NCI-H1975 cells): reverse EGFR inhibitor induced gene expression
Development of drug resistance / re-growth (HCC827 cells; HCC827, combined with 100 nM osimertinib): prevent the development of drug resistance
Effect on cell proliferation on their own (HCC827 cells; HCC827, single agent (1 μM Compound A, 0.2 μM Compound C, 0.2 μM CCS1477, 1 μM FT-6876, 0.2 μM GNE-781)): do not affect cell proliferation
